According to patent US9593305B2, “Differentiation of pluripotent stem cells” (Janssen Biotech, Inc., priority 2008, dated 2017):

System: H1 human embryonic stem cells
Assay: Step-wise differentiation, RT-PCR of differentiation markers (Example 17, Table 15)
Format: cell-based
Protocol: Stock cultures of human embryonic stem cells (H1 human embryonic stem cell line) were maintained in an undifferentiated, pluripotent state on reduced growth factor […]™ (BD Biosciences; Cat #356231)-coated dishes in MEF conditioned medium supplemented with 8 ng/ml bFGF (PeproTech Inc.; Cat #100-18B) with passage on average every four days. Passage was performed by exposing cell cultures to a solution of 1 mg/ml dispase (Invitrogen; Cat #17105-041) for 5 to 7 minutes at 37° C. followed by rinsing the monolayer with MEF conditioned culture medium and gentle scraping to recover cell clusters. Clusters were centrifuged at low speed to collect a cell pellet and remove residual dispase. Cell clusters were split at a 1:3 or 1:4 ratio for routine maintenance culture or a 1:1 ratio for immediate assay. All human ES cell lines were maintained at passage numbers less than 50 and routinely evaluated for normal karyotype and absence of mycoplasma.
Cell clusters were evenly resuspended in MEF conditioned medium supplemented with 8 ng/ml bFGF and plated onto reduced growth factor […]™-coated 24-well, black wall culture plates (Arctic White; Cat #AWLS-303012) in volumes of 0.5 ml/well. Daily feeding was conducted by aspirating spent culture medium from each well and replacing with an equal volume of fresh medium. Plates were maintained at 37° C., 5% CO2 throughout assay.
The assay was initiated by aspirating the culture medium from each well and adding back an aliquot (0.5 ml) of test medium. Test conditions for the first step of differentiation were conducted over a three-day period, feeding daily by aspirating and replacing the medium from each well with fresh test medium. On the first day of assay, 100 ng/ml activin A (PeproTech; Cat #120-14) or 100 ng/ml GDF-8 (R&D Systems, Cat #788-G8) was added to respective assay wells where each growth factor was diluted into RPMI-1640 medium (Invitrogen; Cat #: 22400) with 2% Albumin Bovine Fraction V, Fatty Acid Free (FAF BSA) (MP Biomedicals, Inc; Cat #152401). In some samples, 20 ng/ml Wnt3a (R&D Systems; Cat #1324-WN/CF) was also included. On the second day of assay, 100 ng/mlactivin A or 100 ng/ml GDF-8 was diluted into RPMI-1640 medium supplemented with 2% FAF BSA, omitting Wnt3a from all samples. In some test samples using GDF-8, Wnt3a was replaced with a given concentration of small molecule compound, added only on the first day of definitive endoderm differentiation. […] At the conclusion of the first step of differentiation, cells from some wells were harvested for flow cytometry analysis to evaluate levels of CXCR4, a marker of definitive endoderm formation. Additional wells were harvested for RT-PCR analysis to measure other markers of differentiation.
At the conclusion of the first step of definitive endoderm differentiation, replicate sets of parallel wells from each treatment group were subjected to further step-wise differentiation. It is important to note that after the first differentiation step, all wells undergoing subsequent culture and differentiation received the same treatment. The protocol for this continuing differentiation is described below.
Step 2 of the differentiation protocol was carried out over two days. Cells were fed daily by aspirating the medium from each well and replacing with a fresh aliquot (0.5 ml) of DMEM:F12 medium (Invitrogen; Cat #11330-032) containing 2% FAF BSA, 50 ng/ml FGF7 (PeproTech; Cat #100-19), and 250 nM cyclopamine-KAAD (Calbiochem; Cat #239804).
Step 3 of the differentiation protocol was carried out over four days. […]

[1] = Step 5, cells harvested at end of step, treatment given during step one

## GDF-8: growth factor GDF-8, also known as myostatin, member of the TGF-β family
Step 1
  RT-PCR CT Values AFP: 40.0
  RT-PCR CT Values CD9: 25.5
  RT-PCR CT Values CD99: 25.9
  RT-PCR CT Values CDH: 22.3
  RT-PCR CT Values CDH1: 25.2
  RT-PCR CT Values CDX2: 40.0
  RT-PCR CT Values CER1: 20.1
  RT-PCR CT Values CXCR4: 24.6
  RT-PCR CT Values FGF4: 34.9
  RT-PCR CT Values FGF17: 22.1
  RT-PCR CT Values FOXA2: 25.9
  RT-PCR CT Values GAPDH: 21.6
  RT-PCR CT Values GATA4: 27.5
  RT-PCR CT Values GATA6: 24.8
  RT-PCR CT Values GSC: 24.2
  RT-PCR CT Values HLXB9: 25.3
  RT-PCR CT Values KIT: 25.4
  RT-PCR CT Values MIXL1: 30.6
  RT-PCR CT Values NANOG: 25.0
  RT-PCR CT Values OTX2: 24.3
  RT-PCR CT Values POU5F1: 29.5
  RT-PCR CT Values SOX7: 29.8
  RT-PCR CT Values SOX17: 25.2
  RT-PCR CT Values T: 32.9
Step 3
  RT-PCR CT Values ALB: 28.7
  RT-PCR CT Values AMY2A: 30.4
  RT-PCR CT Values ARX: 35.3
  RT-PCR CT Values CDX2: 23.8
  RT-PCR CT Values GAPDH: 18.0
  RT-PCR CT Values GCG: 40.0
  RT-PCR CT Values HNF4A: 23.6
  RT-PCR CT Values INS: 40.0
  RT-PCR CT Values ISL1: 28.5
  RT-PCR CT Values MAFA: 33.6
  RT-PCR CT Values MAFB: 27.2
  RT-PCR CT Values NEUROD1: 30.3
  RT-PCR CT Values NEUROG3: 28.7
  RT-PCR CT Values NKX2-2: 30.3
  RT-PCR CT Values NKX2-5: 34.4
  RT-PCR CT Values NKX6-1: 35.0
  RT-PCR CT Values PAX4: 32.4
  RT-PCR CT Values PAX6: 24.8
  RT-PCR CT Values PDX1: 25.5
  RT-PCR CT Values PECAM: 30.0
  RT-PCR CT Values POU3F4: 30.8
  RT-PCR CT Values PTF1A: 34.2
  RT-PCR CT Values SST: 29.5
  RT-PCR CT Values ZIC1: 26.1
Step 4
  RT-PCR CT Values ALB: 25.5
  RT-PCR CT Values AMY2A: 29.1
  RT-PCR CT Values ARX: 29.8
  RT-PCR CT Values CDX2: 24.6
  RT-PCR CT Values GAPDH: 18.0
  RT-PCR CT Values GCG: 31.3
  RT-PCR CT Values HNF4A: 23.8
  RT-PCR CT Values INS: 30.9
  RT-PCR CT Values ISL1: 27.6
  RT-PCR CT Values MAFA: 32.8
  RT-PCR CT Values MAFB: 24.1
  RT-PCR CT Values NEUROD1: 29.2
  RT-PCR CT Values NEUROG3: 28.7
  RT-PCR CT Values NKX2-2: 29.0
  RT-PCR CT Values NKX2-5: 32.3
  RT-PCR CT Values NKX6-1: 31.2
  RT-PCR CT Values PAX4: 31.1
  RT-PCR CT Values PAX6: 27.9
  RT-PCR CT Values PDX1: 26.5
  RT-PCR CT Values PECAM: 29.4
  RT-PCR CT Values POU3F4: 29.4
  RT-PCR CT Values PTF1A: 40.0
  RT-PCR CT Values SST: 26.0
  RT-PCR CT Values ZIC1: 22.8
Step 5
  RT-PCR CT Values ALB: 20.5
  RT-PCR CT Values AMY2A: 28.2
  RT-PCR CT Values ARX: 25.2
  RT-PCR CT Values CDX2: 24.4
  RT-PCR CT Values GAPDH: 17.4
  RT-PCR CT Values GCG: 18.1
  RT-PCR CT Values HNF4A: 22.9
  RT-PCR CT Values INS: 17.7
  RT-PCR CT Values ISL1: 24.3
  RT-PCR CT Values MAFA: 31.8
  RT-PCR CT Values MAFB: 23.3
  RT-PCR CT Values NEUROD1: 24.2
  RT-PCR CT Values NEUROG3: 30.1
[1]
  RT-PCR CT Values NKX2-2: 25.9 CT
  RT-PCR CT Values NKX2-5: 31.4 CT
  RT-PCR CT Values NKX6-1: 26.6 CT
  RT-PCR CT Values PAX4: 29.4 CT
  RT-PCR CT Values PAX6: 26.6 CT
  RT-PCR CT Values PDX1: 25.6 CT
  RT-PCR CT Values PECAM: 29.7 CT
  RT-PCR CT Values POU3F4: 27.8 CT
  RT-PCR CT Values PTF1A: 29.5 CT
  RT-PCR CT Values SST: 21.1 CT
  RT-PCR CT Values ZIC1: 22.5 CT
